# pIC50: −log10 of the molar value. Like-named read-outs stand apart in the source and are kept apart here.
# Experiments:
# Test in all cases: radioligand binding assay
# [1] = molecular target: T1, human recombinant vasopressin V1a receptor (Homo sapiens, UniProt P37288); conditions: read-out: Bingding Assy (IC50; nmol/mL) / V1a
# T1 construct: gene AVPR1A; full-length recombinant receptor in 1321N1 host cells (PerkinElmer)
# Description: (§1) radioligand binding assay on human recombinant vasopressin V1a receptor
# [2] = molecular target: T2, human recombinant vasopressin V2 receptor (Homo sapiens, UniProt P30518); type: cell-based; conditions: read-out: Bingding Assy (IC50; nmol/mL) / V2
# T2 construct: gene AVPR2; full-length recombinant receptor in 1321N1 host cells (PerkinElmer)
# T2 sequence (P30518 whole entry): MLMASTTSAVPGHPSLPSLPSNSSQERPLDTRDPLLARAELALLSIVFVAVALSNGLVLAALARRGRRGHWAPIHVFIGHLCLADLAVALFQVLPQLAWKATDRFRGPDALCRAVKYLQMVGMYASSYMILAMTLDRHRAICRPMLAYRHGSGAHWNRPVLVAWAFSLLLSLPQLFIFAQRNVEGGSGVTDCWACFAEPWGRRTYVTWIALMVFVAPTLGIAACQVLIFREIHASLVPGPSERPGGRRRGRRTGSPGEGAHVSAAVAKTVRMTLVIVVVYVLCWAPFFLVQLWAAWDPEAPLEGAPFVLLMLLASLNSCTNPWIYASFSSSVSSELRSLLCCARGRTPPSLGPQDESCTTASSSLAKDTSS
# Description: (§2) radioligand binding assay on human recombinant vasopressin V2 receptor
# [3] = molecular target: T1, human recombinant vasopressin V1a receptor; type: cell-based; conditions: read-out: Bingding Assy (IC50; nmol/mL) / V1a
# Description: as §1
# [4] = molecular target: T2, human recombinant vasopressin V2 receptor; conditions: read-out: Bingding Assy (IC50; nmol/mL) / V2
# Description: as §2
# T1 sequence (P37288 whole entry): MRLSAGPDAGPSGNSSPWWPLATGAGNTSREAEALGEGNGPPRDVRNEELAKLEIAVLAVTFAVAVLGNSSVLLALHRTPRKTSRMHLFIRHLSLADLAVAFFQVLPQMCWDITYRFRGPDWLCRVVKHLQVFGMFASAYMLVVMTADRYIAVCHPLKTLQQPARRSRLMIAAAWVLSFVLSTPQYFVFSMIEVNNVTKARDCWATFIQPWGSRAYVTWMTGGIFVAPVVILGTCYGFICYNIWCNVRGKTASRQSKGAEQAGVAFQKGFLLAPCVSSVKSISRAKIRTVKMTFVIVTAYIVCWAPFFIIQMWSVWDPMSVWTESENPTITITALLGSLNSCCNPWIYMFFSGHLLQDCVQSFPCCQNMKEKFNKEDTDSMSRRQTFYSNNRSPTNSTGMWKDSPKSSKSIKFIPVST
pIC50 [1],pIC50 [2],pIC50 [3],pIC50 [4],Structure (SMILES)
–,–,3.20,–,"O=C(Nc1cccc(S(=O)(=O)N2CCC(=C3c4ccc(Cl)cc4CCc4cccnc43)CC2)c1)c1cccc([N+](=O)[O-])c1 [1v, N-(3-((4-(8-Chloro-5H-benzo[5,6]cyclohepta[1,2-b]pyridin-11(6H)-ylidene)piperidin-1-yl)sulfonyl)phenyl)-3-nitrobenzamide]"
–,–,< 3.00,–,"O=C(Nc1cccc(S(=O)(=O)N2CCC(=C3c4ccc(Cl)cc4CCc4cccnc43)CC2)c1)c1ccccc1 [1t, N-(3-((4-(8-Chloro-5H-benzo[5,6]cyclohepta[1,2-b]pyridin-11(6H)-ylidene)piperidin-1-yl)sulfonyl)phenyl)benzamide]"
–,–,3.07,4.52,"Cc1ccc(S(=O)(=O)Nc2cccc(S(=O)(=O)N3CCC(=C4c5ccc(Cl)cc5CCc5cccnc54)CC3)c2)cc1 [1w, N-(3-((4-(8-Chloro-5H-benzo[5,6]cyclohepta[1,2-b]pyridin-11(6H)-ylidene)piperidin-1-yl)sulfonyl)phenyl)-4-methylbenzenesulfonamide]"
–,–,3.04,3.77,"Cc1ccc(S(=O)(=O)Nc2ccc(S(=O)(=O)N3CCC(=C4c5ccc(Cl)cc5CCc5cccnc54)CC3)cc2)cc1 [1y, N-(4-((4-(8-Chloro-5H-benzo[5,6]cyclohepta[1,2-b]pyridin-11(6H)-ylidene)piperidin-1-yl)sulfonyl)phenyl)-4-methylbenzenesulfonamide]"
–,4.28,< 3.00,–,"O=C(Nc1ccc(C(=O)N2CCC(=C3c4ccc(Cl)cc4CCc4cccnc43)CC2)cc1)c1ccc([N+](=O)[O-])cc1 [1p, N-(4-(4-(8-Chloro-5H-benzo[5,6]cyclohepta[1,2-b]pyridin-11(6H)-ylidene)piperidine-1-carbonyl)phenyl)-4-nitrobenzamide]"
–,4.74,3.26,–,"O=C(Nc1ccc(C(=O)N2CCC(=C3c4ccc(Cl)cc4CCc4cccnc43)CC2)cc1)c1cccc([N+](=O)[O-])c1 [1o, N-(4-(4-(8-Chloro-5H-benzo[5,6]cyclohepta[1,2-b]pyridin-11(6H)-ylidene)piperidine-1-carbonyl)phenyl)-3-nitrobenzamide]"
–,–,3.08,–,"O=C(c1ccc(NS(=O)(=O)c2ccccc2Cl)cc1)N1CCC(=C2c3ccc(Cl)cc3CCc3cccnc32)CC1 [1r, 2-Chloro-N-(4-(4-(8-chloro-5H-benzo[5,6]cyclohepta[1,2-b]pyridin-11(6H)-ylidene)piperidine-1-carbonyl)phenyl)benzenesulfonamide]"
–,4.62,3.14,–,"Cc1ccc(S(=O)(=O)Nc2ccc(C(=O)N3CCC(=C4c5ccc(Cl)cc5CCc5cccnc54)CC3)cc2)cc1 [1q, N-(4-(4-(8-Chloro-5H-benzo[5,6]cyclohepta[1,2-b]pyridin-11(6H)-ylidene)piperidine-1-carbonyl)phenyl)-4-methylbenzenesulfonamide]"
–,–,3.08,4.72,"O=C(Nc1cccc(S(=O)(=O)N2CCC(=C3c4ccc(Cl)cc4CCc4cccnc43)CC2)c1)c1cccc(Cl)c1 [1u, 3-Chloro-N-(3-((4-(8-chloro-5H-benzo[5,6]cyclohepta[1,2-b]pyridin-11(6H)-ylidene)piperidin-1-yl)-sulfonyl)phenyl)benzamide]"
–,–,< 3.00,3.51,"O=C(Nc1ccc(S(=O)(=O)N2CCC(=C3c4ccc(Cl)cc4CCc4cccnc43)CC2)cc1)c1cccc(Cl)c1 [1x, 3-Chloro-N-(4-((4-(8-chloro-5H-benzo[5,6]cyclohepta[1,2-b]pyridin-11(6H)-ylidene)piperidin-1-yl)-sulfonyl)phenyl)benzamide]"
–,–,3.49,–,"O=C(c1ccc(NS(=O)(=O)c2cc(Cl)ccc2Cl)cc1)N1CCC(=C2c3ccc(Cl)cc3CCc3cccnc32)CC1 [1s, 2,5-Dichloro-N-(4-(4-(8-chloro-5H-benzo[5,6]cyclohepta[1,2-b]pyridin-11(6H)-ylidene)piperidine-1-carbonyl)phenyl)benzenesulfonamide]"
–,–,3.41,–,"COc1cccc(C(=O)Nc2ccc(C(=O)N3CCC(=C4c5ccc(Cl)cc5CCc5cccnc54)CC3)cc2)c1 [1n, N-(4-(4-(8-Chloro-5H-benzo[5,6]cyclohepta[1,2-b]pyridin-11(6H)-ylidene)piperidine-1-carbonyl)phenyl)-3-methoxybenzamide]"

# The next lines start with the compound.
Structure (SMILES),pIC50 [1],pIC50 [2],pIC50 [3],pIC50 [4]
"O=C(CCCCl)Nc1ccc(C(=O)N2CCC(=C3c4ccc(Cl)cc4CCc4cccnc43)CC2)cc1 [1c, 4-Chloro-N-(4-(4-(8-chloro-5H-benzo[5,6]cyclohepta[1,2-b]pyridin-11(6H)-ylidene)piperidine-1-carbonyl)phenyl)butanamide]",< 3.00,4.60,–,–
CCC(=O)Nc1ccc(C(=O)N2CCC(=C3c4ccc(Cl)cc4CCc4cccnc43)CC2)cc1 [1a],3.89,–,–,–
"O=C(Nc1ccc(C(=O)N2CCC(=C3c4ccc(Cl)cc4CCc4cccnc43)CC2)cc1)c1cccc(Cl)c1 [1l, 3-Chloro-N-(4-(4-(8-chloro-5H-benzo[5,6]cyclohepta[1,2-b]pyridin-11(6H)-ylidene)piperidine-1-carbonyl)phenyl)benzamide]",–,4.80,3.25,–
"O=C(Nc1ccc(C(=O)N2CCC(=C3c4ccc(Cl)cc4CCc4cccnc43)CC2)cc1)c1ccccc1 [1g, N-(4-(4-(8-Chloro-5H-benzo[5,6]cyclohepta[1,2-b]pyridin-11(6H)-ylidene)piperidine-1-carbonyl)phenyl)benzamide]",3.48,4.72,–,–
"CCCC(=O)Nc1cccc(S(=O)(=O)N2CCC(=C3c4ccc(Cl)cc4CCc4cccnc43)CC2)c1 [1e, N-(3-((4-(8-Chloro-5H-benzo[5,6]cyclohepta[1,2-b]pyridin-11(6H)-ylidene)piperidin-1-yl)sulfonyl)phenyl)butyramide]",3.75,4.59,–,–
Cc1ccccc1C(=O)Nc1ccc(C(=O)N2CCC(=C3c4ccc(Cl)cc4CCc4cccnc43)CC2)cc1 [1h],–,4.64,3.68,–
"O=C(Nc1ccc(C(=O)N2CCC(=C3c4ccc(Cl)cc4CCc4cccnc43)CC2)cc1)c1ccccc1Cl [1k, 2-Chloro-N-(4-(4-(8-chloro-5H-benzo[5,6]cyclohepta[1,2-b]pyridin-11(6H)-ylidene)piperidine-1-carbonyl)phenyl)benzamide]",–,4.57,3.31,–
"O=C(Nc1ccc(C(=O)N2CCC(=C3c4ccc(Cl)cc4CCc4cccnc43)CC2)cc1)c1ccccc1F [1m, N-(4-(4-(8-Chloro-5H-benzo[5,6]cyclohepta[1,2-b]pyridin-11(6H)-ylidene)piperidine-1-carbonyl)phenyl)-2-fluorobenzamide]",–,4.70,3.77,–
"Cc1cccc(C(=O)Nc2ccc(C(=O)N3CCC(=C4c5ccc(Cl)cc5CCc5cccnc54)CC3)cc2)c1 [1j, N-(4-(4-(8-Chloro-5H-benzo[5,6]cyclohepta[1,2-b]pyridin-11(6H)-ylidene)piperidine-1-carbonyl)phenyl)-3-methylbenzamide]",–,–,3.43,–
"CCCC(=O)Nc1ccc(S(=O)(=O)N2CCC(=C3c4ccc(Cl)cc4CCc4cccnc43)CC2)cc1 [1f, N-(4-((4-(8-Chloro-5H-benzo[5,6]cyclohepta[1,2-b]pyridin-11(6H)-ylidene)piperidin-1-yl)sulfonyl)phenyl)butyramide]",3.32,4.40,–,–
Cc1ccc(C(=O)Nc2ccc(C(=O)N3CCC(=C4c5ccc(Cl)cc5CCc5cccnc54)CC3)cc2)cc1 [1i],–,4.74,3.66,–
CCCC(=O)Nc1ccc(C(=O)N2CCC(=C3c4ccc(Cl)cc4CCc4cccnc43)CC2)cc1 [1b],< 3.00,4.33,–,–
"CCS(=O)(=O)Nc1ccc(C(=O)N2CCC(=C3c4ccc(Cl)cc4CCc4cccnc43)CC2)cc1 [1d, N-(4-(4-(8-Chloro-5H-benzo[5,6]cyclohepta[1,2-b]pyridin-11(6H)-ylidene)piperidine-1-carbonyl)phenyl)ethanesulfonamide]",4.04,–,–,–
